Measured values published in PMC13006724 (Clinical Pharmacology in Drug Development, 2026).

Settings: human, in vivo, 400 mg
Experimental: Urine PK parameters included cumulative urinary excretion from time zero to time t (Ae0‐t), maximum rate of urinary excretion (Rmax), time of maximum rate of urinary excretion (TRmax), and renal clearance (Clr). PK analyses were performed using Phoenix WinNonlin version 8.0, which was validated by Syneos Health.

For COc1c(N2C[C@@H]3CCCN[C@@H]3C2)c(F)cc2c(=O)c(C(=O)O)cn(C3CC3)c12 [Moxifloxacin], the AUC0-inf was 28327.2 (4616.5) h*ng/mL.
